Reference: US5374649A, “Indole derivatives and pharmaceutical use thereof” (Glaxo S.p.A., priority 1992, dated 1994)

How the values were obtained:
[1] = tested on: NMDA induced convulsions; test: inhibition of NMDA induced convulsions in mice (procedure of Chiamulera C et al.); format: in vivo; conditions: mouse; iv administration; intracerebroventricular injection of NMDA; read-out: ED50 (dose required to protect 50% of the animals from the convulsive action of NMDA)
Procedure: The ability of compounds of the invention to inhibit NMDA included convulsions in the mouse was determined using the procedure of Chiamulera C et al. Psychopharmacology 1990, 102, 551-552. In this test the ability of the compound to inhibit the generalized seizures induced by an intracerebroventricular injection of NMDA in mice was examined at a number of dose levels. […] This expressed as mg/kg is referred to as the ED50 value.

[2] = molecular target: T1, strychnine insensitive glycine binding site located on the NMDA receptor complex (Rattus norvegicus, UniProt P35439); test: affinity for strychnine insensitive glycine binding site (procedure of Kishimoto H. et al.); conditions: procedure of Kishimoto H. et al. J. Neurochem 1981, 37, 1015-1024
T1 construct: from tissue
Procedure: The potent and selective action of the compounds of the invention at the strychnine- insensitive glycine binding site present on the NMDA receptor complex may be readily determined using conventional test procedures. Thus the ability to bind at the strychnine insensitive glycine binding site was determined using the procedure of Kishimoto H et al. J Neurochem 1981, 37 1015-1024. The selectivity of the action of compounds of the invention for the strychnine insensitive glycine site was confirmed in studies at other ionotropic known excitatory amino acid receptors.
The affinity of the compound of the invention for strychnine insensitvie glycine binding site was determined using the procedure of Kishimoto H. et al J. Neurochem 1981, 37, 1015-1024.

Row | pKi [2] | Compound | ED50 [1] [mg/kg]
1 | 8.3 | O=C(/C=C/c1c(C(=O)O)[nH]c2cc(Cl)cc(Cl)c12)Nc1ccc(F)cc1F [Example 2h, (E) 3-[2-(2,4-Difluorophenylaminocarbonyl)ethenyl]-4,6-dichloroindole-2-carboxylic acid] | 0.3
2 | 8.4 | O=C(/C=C/c1c(C(=O)O)[nH]c2cc(Cl)cc(Cl)c12)Nc1ccccc1O [Example 2e, (E) 3-[2-(2-Hydroxyphenylaminocarbonyl)ethenyl]-4,6-dichloroindole-2-carboxylic acid] | –
3 | 8.1 | COc1ccc(NC(=O)/C=C/c2c(C(=O)O)[nH]c3cc(Cl)cc(Cl)c23)cc1OC [Example 2f, (E) 3-[2-(3,4-Dimethoxyphenylaminocarbonyl)ethenyl]-4,6-dichloroindole-2-carboxylic acid] | 0.3
4 | 8.0 | O=C(/C=C/c1c(C(=O)O)[nH]c2cc(Cl)cc(Cl)c12)Nc1cc([N+](=O)[O-])ccc1O [Example 2i] | –
5 | 8.3 | CCOc1ccc(NC(=O)/C=C/c2c(C(=O)O)[nH]c3cc(Cl)cc(Cl)c23)cc1 [Example 2g, (E) 3-[2(4-Ethoxyphenylaminocarbonyl)ethenyl]-4,6-dichloroindole-2-carboxylic acid] | 0.1
